Test results from patent US11851391B2, “Antifungal compounds and methods of forming the same” (University of Kentucky Research Foundation, priority 2018, dated 2023).
≈ marks a conversion by molar mass, not a printed value. Entries after “also recorded” stand apart in the source; their conditions may differ. Like-named read-outs stand apart in the source and are kept apart here.

Assays:
[1] = system: Candida albicans ATCC 10231(R) (strain A); assay: MIC determination, in vitro antifungal assay (CLSI M27-A3); assay type: cell-based; details: Candida albicans, ATCC10231, 48 h, MIC-0 (no visible growth), 48 h at 35° C., read-out: MIC
Protocol: (§1) The activity of N,N′-diaryl-bishydrazones 7-22 was tested against a panel of seven strains of C. albicans: ATCC 10231(R) (A), ATCC 64124(R) (B), ATCC MYA-2876(S) (C), ATCC 90819(R) (D), ATCC MYA-2310(S) (E), ATCC MYA-1237(R) (F), and ATCC MYA-1003(R) (G). The activity of these bishydrazones 7-22 was also explored against a panel of three non-albicans Candida strains: C. glabrata ATCC 2001 (H), C. krusei ATCC 6258 (I), and C. parapsilosis ATCC 22019 (J). Finally, the activity of these bishydrazones 7-22 was explored against three Aspergillus strains: A. flavus ATCC MYA-3631 (K), A. nidulans ATCC 38163 (L), and A. terreus ATCC MYA-3633 (M).
(§2) Candida albicans ATCC 10231 (A), C. albicans ATCC 64124 (B), and C. albicans ATCC MYA-2876 (C) were kindly provided by Dr. Jon Y. Takemoto (Utah State University, Logan, UT, USA). C. albicans ATCC 90819 (D), C. albicans ATCC MYA-2310 (E), C. albicans ATCC MYA-1237 (F), C. albicans ATCC MYA-1003 (G), Candida glabrata ATCC 2001 (H), Candida krusei ATCC 6258 (I), Candida parapsilosis ATCC 22019 (J), Aspergillus flavus ATCC MYA-3631 (K), and Aspergillus terreus ATCC MYA-3633 (M) were obtained from the American Type Culture Collection (ATCC; Manassas, VA, USA). Aspergillus nidulans ATCC 38163 (L) was received from Dr. Jon S. Thorson (University of Kentucky, Lexington, KY, USA). Filamentous fungi and yeasts were cultivated at 35° C. in RPMI 1640 medium (with 1-glutamine, without sodium biocarbonate, Sigma-Aldrich, St. Louis, MO) buffered to a pH of 7.0 with 0.165 M morpholinepropanesulfonic acid (MOPS) buffer (Sigma-Aldrich).
(§3) The MIC values of compounds 7a-24c against yeast cells (strains A-J) were determined in 96-well plates as described in the CLSI document M27-A3 with minor modifications. A single colony of freshly prepared yeast cells was used to inoculate 5 mL of yeast extract peptone dextrose (YPD) broth prior to incubation overnight with shaking at 200 rpm at 35° C. From the actively growing yeast culture, 100 μL were then transferred to 900 μL of sterile ddH2O and re-adjusted to achieve OD600 of 0.12 (˜1×10^6 CFU/mL). The cell suspension was further diluted to achieve 2-4×10^3 CFU/mL in RPMI 1640 medium. […] The final concentration of DMSO was ensured to be <1.25% in all experiments. The MIC values for compounds 7a-24c and CAS were defined as the minimum drug concentration that yielded complete inhibition (also known as MIC-0).

[2] = system: Candida parapsilosis ATCC 22019 (strain J); assay: as above; assay type: cell-based; details: Lodderomyces parapsilosis, ATCC22019, 48 h, strain J; MIC-0; 48 h at 35° C.; read-out: MIC
Protocol: as §1, §2, §3

[3] = system: various bacterial strains, including Listeria monocytogenes, methicillin-resistant Staphylococcus aureus, and vancomycin-resistant enterococci; assay: Antibacterial activity; assay type: cell-based
From the text: The activity of N,N′-diaryl-bishydrazones 7-22 was explored against various bacterial strains, including Listeria monocytogenes, methicillin-resistant Staphylococcus aureus, and vancomycin-resistant enterococci.

[4] = system: Candida glabrata ATCC 2001 (strain H); assay: MIC determination, in vitro antifungal assay (CLSI M27-A3); assay type: cell-based; details: MIC-0, 48 h at 35° C.
Protocol: as §1, §2
(§4) A single colony of freshly prepared yeast cells was used to inoculate 5 mL of yeast extract peptone dextrose (YPD) broth prior to incubation overnight with shaking at 200 rpm at 35° C. From the actively growing yeast culture, 100 μL were then transferred to 900 μL of sterile ddH2O and re-adjusted to achieve OD600 of 0.12 (˜1×10^6 CFU/mL). The cell suspension was further diluted to achieve 2-4×10^3 CFU/mL in RPMI 1640 medium. […] The final concentration of DMSO was ensured to be <1.25% in all experiments.

[5] = system: Candida krusei ATCC 6258 (strain I); assay: as above; assay type: cell-based; details: Pichia kudriavzevii, ATCC6258, 48 h, MIC-0, 48 h at 35° C., read-out: MIC
Protocol: as §1, §2, §4

[6] = system: C. albicans ATCC MYA-2310(S) (strain E); assay: as above; assay type: cell-based, Candida albicans; details: Candida albicans, 48 h, MIC-0, 48 h at 35° C., read-out: MIC
Protocol: as §1, §2, §3

[7] = system: C. albicans ATCC 90819(R) (strain D); assay: as above; assay type: cell-based, Candida albicans; details: Candida albicans, ATCC90819, 48 h, MIC-0, 48 h at 35° C., read-out: MIC
Protocol: as §1, §2, §3

[8] = system: C. albicans ATCC 64124(R) (strain B); assay: as above; assay type: cell-based, Candida albicans; details: Candida albicans, ATCC64124, 48 h, strain B; MIC-0; 48 h at 35° C.; read-out: MIC
Protocol: as §1, §2, §3

[9] = system: C. albicans ATCC MYA-1237(R) (strain F); assay: as above; assay type: cell-based, Candida albicans; details: Candida albicans, 48 h, MIC-0, 48 h at 35° C., read-out: MIC
Protocol: as §1, §2, §3

[10] = system: Aspergillus nidulans ATCC 38163 (strain L); assay: MIC determination against filamentous fungi (CLSI M38-A2); assay type: cell-based; details: Aspergillus nidulans, ATCC38163, 48 h, MIC-0, 48 h at 35° C., read-out: MIC
Protocol: as §1, §2
(§5) Similarly, the MIC values of compounds 7a-24c, as well as that of the two control drugs against filamentous fungi (strains K-M) were determined as previously described in CLSI document M38-A2. Spores were harvested from sporulating cultures growing on potato dextrose agar (PDA) by filtration through sterile glass wool and enumerated by using a hemocytometer to obtain the desired inoculum size. […] Spore suspensions were added to the wells to afford a final concentration of 5×10^5 CFU/mL. The plates were incubated at 35° C. for 48 h. The MIC values of compounds 7a-24c and CAS against filamentous fungi were based on the complete inhibition of growth when compared to the growth control (MIC-0). […] Each test was performed in triplicate.

[11] = system: Aspergillus terreus ATCC MYA-3633 (strain M); assay: as above; assay type: cell-based; details: Aspergillus terreus, 48 h, MIC-0, 48 h at 35° C., read-out: MIC
Protocol: as §1, §2, §5

[12] = system: Aspergillus flavus ATCC MYA-3631 (strain K); assay: as above; assay type: cell-based; details: Aspergillus flavus, 48 h, MIC-0, 48 h at 35° C., read-out: MIC
Protocol: as §1, §2, §5

[13] = system: various yeast strains and filamentous fungi (strains A-M); assay: Antifungal activity over the whole panel (summary of MIC data); assay type: cell-based, Candida and Aspergillus strains; details: for antifungal activity (in words): over the fungal strains tested, based on MIC data of Table 1
Protocol: as §1, §3, §5

[14] = system: C. albicans ATCC MYA-1003(R) (strain G); assay: MIC determination, in vitro antifungal assay (CLSI M27-A3); assay type: cell-based, Candida albicans; details: Candida albicans, 48 h, MIC-0, 48 h at 35° C., read-out: MIC
Protocol: as §1, §2, §4

[15] = system: C. albicans ATCC MYA-2876(S) (strain C); assay: as above; assay type: cell-based, Candida albicans; details: Candida albicans, 48 h, MIC-0, 48 h at 35° C., read-out: MIC
Protocol: as §1, §2, §4

[16] = Solubility of the compounds; assay type: physicochemical
[17] = Nakaseomyces glabratus, ATCC2001, 48 h, read-out: MIC

Row | MIC [1] [µg/mL] | MIC [2] [µg/mL] | MIC [4] [µg/mL] | MIC [4, 17] [µg/mL] | MIC [5] [µg/mL] | MIC [6] [µg/mL] | MIC [7] [µg/mL] | MIC [8] [µg/mL] | MIC [9] [µg/mL] | MIC [10] [µg/mL] | MIC [11] [µg/mL] | MIC [12] [µg/mL] | MIC ([13]; against all fungal strains tested, with named exceptions, read-out: antifungal activity class based on MIC values) [µg/mL] | MIC [14] [µg/mL] | MIC [15] [µg/mL] | SMILES | antibacterial activity (in words) [3] | antifungal activity (in words) [13] | solubility (in words) [16]
1 | 31.3 (≈ 89.3 µM) | > 31.3 | 15.6 (≈ 44.5 µM) | 15.6 (≈ 44.5 µM) | 31.3 (≈ 89.3 µM) | 31.3 (≈ 89.3 µM) | > 31.3 | 31.3 (≈ 89.3 µM) | 31.3 (≈ 89.3 µM) | 31.3 (≈ 89.3 µM) | > 31.3 | > 31.3 | ≥ 31.3 | > 31.3 | > 31.3 | CC(C)(C)N/N=C/c1ccc(-c2ccc(/C=N/NC(C)(C)C)cc2)cc1 [Compound 23b] | neither the N,N′-diaryl-bishydrazones 7-22 nor the N,N′-di-tert-butyl-bishydrazone 23b displayed antibacterial activity; also recorded: Neither the N,N′-diaryl-bishydrazones 7-22 or the N,N′-dialkyl-bishydrazone 23b displayed antibacterial activity | inactive | 
2 |  |  |  |  |  |  |  |  |  |  |  |  |  |  |  | COc1ccccc1N/N=C/c1ccc(-c2ccc(/C=N/Nc3ccccc3OC)cc2)cc1 [Compound 9b] |  |  | limited solubility; also recorded: insoluble
3 | > 31.3 | 31.3 (≈ 57.1 µM) |  | > 31.3 | > 31.3 | > 31.3 | > 31.3 | > 31.3 | > 31.3 | > 31.3 | > 31.3 | > 31.3 |  | > 31.3 | > 31.3 | Brc1ccc(N/N=C/c2ccc(-c3ccc(/C=N/Nc4ccc(Br)cc4)cc3)cc2)cc1 [Compound 19b] |  | inactive | 
4 | > 31.3 | 31.3 (≈ 68.1 µM) |  | > 31.3 | 31.3 (≈ 68.1 µM) | > 31.3 | > 31.3 | > 31.3 | > 31.3 | > 31.3 | 31.3 (≈ 68.1 µM) | > 31.3 |  | > 31.3 | > 31.3 | Clc1ccc(N/N=C/c2ccc(-c3ccc(/C=N/Nc4ccc(Cl)cc4)cc3)cc2)cc1 [Compound 18b] |  | inactive | 
5 |  |  |  |  |  |  |  |  |  |  |  |  |  |  |  | COc1ccccc1N/N=C/c1ccc(-c2cccc(/C=N/Nc3ccccc3OC)c2)cc1 [Compound 9a] |  |  | limited solubility; also recorded: insoluble
6 |  |  |  |  |  |  |  |  |  |  |  |  |  |  |  | COc1cccc(N/N=C/c2ccc(-c3cccc(/C=N/Nc4cccc(OC)c4)c3)cc2)c1 [Compound 11a] |  |  | limited solubility; also recorded: insoluble
7 |  |  |  |  |  |  |  |  |  |  |  |  |  |  |  | O=[N+]([O-])c1ccccc1N/N=C/c1ccc(-c2cccc(/C=N/Nc3ccccc3[N+](=O)[O-])c2)cc1 [Compound 8a] |  |  | limited solubility; also recorded: insoluble
